From patent publication US7799809B2, “Carboxamide compounds and their use as calpain inhibitors” (Abbott GmbH & Co. KG, priority 2006, dated 2010)

Legend:
Assay type in all cases: biochemical
cathepsin S = biological target: T1, cathepsin S (Homo sapiens, UniProt P25774); test: Cathepsin S enzyme inhibition in vitro (kinetic fluorescence assay); details: recombinant human cathepsin S vs calpain I
T1 construct: purchased Calbiochem 219343; host or cells: E. coli
Outline: (§1)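 Cathepsin B (0.25 nM, human liver) with 100 μM Z-Phe-Arg-AMC; L (1 nM, human liver) with 2 μM Z-Phe-Arg-AMC; S (0.5 nM, recombinant) with 20 μM Z-Val-Val-Arg-AMC. pH 6.0 MES buffer, 2.5 mM L-cysteine, room temperature. Kinetic fluorescence (ex 390/em 460 nm); apparent Ki from IC50 by Cheng-Prusoff.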

cathepsin K = biological target: T2, cathepsin K (Homo sapiens, UniProt P43235); test: Cathepsin K enzyme inhibition in vitro (kinetic fluorescence assay); details: cathepsin K activated from recombinant human procathepsin K vs calpain I
T2 construct: purchased Calbiochem 342001; host or cells: E. coli
T2 sequence (P43235 115-329): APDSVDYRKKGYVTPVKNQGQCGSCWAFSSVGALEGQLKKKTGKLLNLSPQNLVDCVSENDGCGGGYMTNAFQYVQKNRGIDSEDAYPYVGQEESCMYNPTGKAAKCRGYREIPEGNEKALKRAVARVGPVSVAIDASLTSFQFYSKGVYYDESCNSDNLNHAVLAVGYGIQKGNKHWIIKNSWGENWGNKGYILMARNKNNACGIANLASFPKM
Procedure: (§2) The following solutions and buffers were employed: • HBS (for 40 ml): 800 μl M HEPES; 2.16 ml 100 mM KCl; 4.8 ml 1M NaCl; 3.59 ml 5% glucose; 60 μl μM MgSO4; 400 μl 100 mM Na pyruvate, 28.19 ml water; pH 7.2-7.5. • lysis buffer (for 20 ml): 400 μl M Tris pH 8.2; 2.74 ml 1M NaCl; 520 μl 0.5M EDTA; 2 ml 10% triton X-100; 0.8 ml (=1:25) CompletePlus (1 tablet/2 ml H2O); 200 μl 100 mM Pefabloc; 13.34 ml water, pH 8.2. • TBST (10×) (for 1 l): 100 mM Tris (12.1 g); 1.5M NaCl (87 g); 1% Tween 20 (10 g), adjusted to pH 8. I Enzyme Inhibition In Vitro: • Testing for blockade of the corresponding enzymic activities was carried out by means of kinetic fluorescence assays (excitation 390 nm, emission 460 nm). • Apparent Ki values were calculated from the experimentally determined IC50 values by the Cheng-Prussoff relation assuming a reversible competitive enzyme inhibition. The Km values of the substrates used under the assay conditions indicated above were: 90 μM (Z-Phe-Arg-AMC, cathepsin B), 10 μM (Z-Gly-Pro-Arg-AMC, cathepsin K), 2 μM (Z-Phe-Arg-AMC, cathepsin L), and 30 μM (Z-Val-Val-Arg-AMC, cathepsin S). • The indicated Ki values are averages of the inhibition constants calculated on the basis of 2 to 4 independent dose-effect plots.
(§3) The following assays were used: • 1. Calpain I: • 20 nM calpain-I—isolated from human erythrocytes (Calbiochem #208713), 100 μM Suc-Leu-Tyr-AMC (Bachem #1-1355) as substrate in buffer with 62 mM imidazole, 0.3 mM CaCl2, 0.10% CHAPS, 0.05% BSA, 1 mM DTT at pH 7.3 and room temperature. • 2. Cathepsin B: • 0.25 nM cathepsin B—isolated from human liver (Calbiochem #219362), 100 μM Z-Phe-Arg-AMC (Bachem #I-1160) as substrate 50 mM MES, 2 mM EDTA, 0.05% Brij 35, 2.5 mM L-cysteine, pH 6.0, room temperature. • 3. Cathepsin K: • 3 nM cathepsin K—activated from recombinant human procathepsin K from E. coli (Calbiochem #342001), 10 μM Z-Gly-Pro-Arg-AMC (Biomol #P-142) as substrate in 50 mM MES, 2 mM EDTA, 0.05% Brij 35, 2.5 mM L-cysteine, pH 6.0, room temperature. • 4. Cathepsin L: • 1 nM cathepsin L—isolated from human liver (Calbiochem #219402), 2 μM Z-Phe-Arg-AMC (Bachem #1-1160) as substrate in 50 mM MES, 2 mM EDTA, 0.05% Brij 35, 2.5 mM L-cysteine, pH 6.0, room temperature. • 5. Cathepsin S: • 0.5 nM recombinant human cathepsin S from E. coli (Calbiochem #219343), 20 μM Z-Val-Val-Arg-AMC (Bachem #1-1540) as substrate in 50 mM MES, 2 mM EDTA, 0.05% Brij 35, 2.5 mM L-cysteine, pH 6.0, room temperature. • The results of the in vitro determination are indicated in Table 1. The following abbreviations are used in Table 1: • The “Calpain activity” column, ++ stands for a calpain Ki (Ki(calpain)) of ≦40 nM and + means: 40 nM<Ki(Calpain)≦100 nM. • The “Sel. cat. B” column indicates the Ki(cathepsin B)/Ki(calpain) ratio. In this connection, ++ means a Ki(cathepsin B)/Ki(calpain) ratio of ≧30 and + means 10≦Ki(cathepsin B)/Ki(calpain)<30. • The “Sel. cat. K” column indicates the Ki(cathepsin K)/Ki(calpain) ratio. In this connection, ++ means a Ki(cathepsin K)/Ki(calpain) ratio of ≧30 and + means 10≦Ki(cathepsin K)/Ki(calpain)<30. • The “Sel. cat. L” column indicates the Ki(cathepsin L)/Ki(calpain) ratio. In this connection, ++ means a Ki(cathepsin L)/Ki(calpain) ratio of ≧50 and + means 30≦Ki(cathepsin L)/Ki(calpain)<50. • The “Sel. cat. S” column indicates the Ki(cathepsin S)/Ki(calpain) ratio. In this connection, ++ means a Ki(cathepsin S)/Ki(calpain) ratio of ≧100 and + means 50≦Ki(cathepsin S)/Ki(calpain)<100.

cathepsin B = biological target: T3, cathepsin B (Homo sapiens, UniProt P07858); test: Cathepsin B enzyme inhibition in vitro (kinetic fluorescence assay); details: cathepsin B isolated from human liver vs calpain I
T3 construct: cathepsin B—isolated from human liver (Calbiochem #219362); purchased Calbiochem 219362; host or cells: human liver (tissue-derived)
Procedure: as §2, §3

cathepsin L = biological target: T4, cathepsin L (Homo sapiens, UniProt P07711); test: Cathepsin L enzyme inhibition in vitro (kinetic fluorescence assay); details: cathepsin L isolated from human liver vs calpain I
T4 construct: cathepsin L—isolated from human liver (Calbiochem #219402); purchased Calbiochem 219402; host or cells: human liver (tissue-derived)
Outline: as §1

T1 sequence (P25774 115-331): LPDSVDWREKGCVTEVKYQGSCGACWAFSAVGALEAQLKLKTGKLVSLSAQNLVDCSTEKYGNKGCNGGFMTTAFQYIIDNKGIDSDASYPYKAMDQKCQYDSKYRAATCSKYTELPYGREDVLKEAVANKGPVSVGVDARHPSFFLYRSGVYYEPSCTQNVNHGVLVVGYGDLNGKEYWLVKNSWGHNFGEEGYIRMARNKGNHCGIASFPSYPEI
T4 sequence (P07711 114-333): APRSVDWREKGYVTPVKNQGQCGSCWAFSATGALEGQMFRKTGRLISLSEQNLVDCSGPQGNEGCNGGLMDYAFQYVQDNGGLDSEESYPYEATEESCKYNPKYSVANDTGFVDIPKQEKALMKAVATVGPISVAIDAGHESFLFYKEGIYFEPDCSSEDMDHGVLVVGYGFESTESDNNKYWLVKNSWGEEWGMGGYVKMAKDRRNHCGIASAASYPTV

Row | Compound | Sel cat. S: Ki(cathepsin S)/Ki(calpain) ratio (cathepsin S) | Sel cat. K: Ki(cathepsin K)/Ki(calpain) ratio (cathepsin K) | Sel cat. B: Ki(cathepsin B)/Ki(calpain) ratio (cathepsin B) | Sel cat. L: Ki(cathepsin L)/Ki(calpain) ratio (cathepsin L)
1 | NC(=O)C(=O)C(Cc1ccccc1)NC(=O)c1cccnc1-n1ccc(-c2cccc(N3CCOCC3)c2)n1 (centres unmarked) [Example 58, N-(3-Amino-1-benzyl-2,3-dioxopropyl)-2-[3-(3-morpholin-4-ylphenyl)-1H-pyrazol-1-yl]nicotinamide] | ++ (++ means a Ki(cathepsin S)/Ki(calpain) ratio of ≧100) | + (+ means 10≦Ki(cathepsin K)/Ki(calpain)<30) | + (+ means 10≦Ki(cathepsin B)/Ki(calpain)<30) | ++ (++ means a Ki(cathepsin L)/Ki(calpain) ratio of ≧50)
2 | N-(3-Amino-1-{[4-(methyloxy)phenyl]methyl}-2,3-dioxopropyl)-2-{3-[3-(trifluoromethyl)phenyl]-1H-pyrazol-1-yl}pyridine-3-carboxamide [Example 126] | ++ (++ means a Ki(cathepsin S)/Ki(calpain) ratio of ≧100) | ++ (++ means a Ki(cathepsin K)/Ki(calpain) ratio of ≧30) | ++ (++ means a Ki(cathepsin B)/Ki(calpain) ratio of ≧30) | ++ (++ means a Ki(cathepsin L)/Ki(calpain) ratio of ≧50)
3 | NC(=O)C(=O)C(Cc1ccccc1)NC(=O)c1cccnc1-n1cc2c(n1)-c1ccccc1SC2 (centres unmarked) [Example 173, N-[3-Amino-2,3-dioxo-1-(phenylmethyl)propyl]-2-thiochromeno[4,3-c]pyrazol-2(4H)-ylpyridine-3-carboxamide] | ++ (++ means a Ki(cathepsin S)/Ki(calpain) ratio of ≧100) | + (+ means 10≦Ki(cathepsin K)/Ki(calpain)<30) | + (+ means 10≦Ki(cathepsin B)/Ki(calpain)<30) | ++ (++ means a Ki(cathepsin L)/Ki(calpain) ratio of ≧50)
4 | N-{3-Amino-1-[(4-fluorophenyl)methyl]-2,3-dioxopropyl}-2-[3-(2-chloro-3-fluorophenyl)-1H-pyrazol-1-yl]pyridine-3-carboxamide [Example 154] | ++ (++ means a Ki(cathepsin S)/Ki(calpain) ratio of ≧100) | ++ (++ means a Ki(cathepsin K)/Ki(calpain) ratio of ≧30) | ++ (++ means a Ki(cathepsin B)/Ki(calpain) ratio of ≧30) | ++ (++ means a Ki(cathepsin L)/Ki(calpain) ratio of ≧50)
5 | NC(=O)C(=O)C(Cc1ccc(OC(F)(F)F)cc1)NC(=O)c1cccnc1-n1ccc(-c2ccccc2)n1 (centres unmarked) [Example 133, N-[3-Amino-2,3-dioxo-1-({4-[(trifluoromethyl)oxy]phenyl}methyl)propyl]-2-(3-phenyl-1H-pyrazol-1-yl)pyridine-3-carboxamide] | ++ (++ means a Ki(cathepsin S)/Ki(calpain) ratio of ≧100) | ++ (++ means a Ki(cathepsin K)/Ki(calpain) ratio of ≧30) | ++ (++ means a Ki(cathepsin B)/Ki(calpain) ratio of ≧30) | ++ (++ means a Ki(cathepsin L)/Ki(calpain) ratio of ≧50)
6 | NC(=O)C(=O)C(Cc1ccccc1)NC(=O)c1cccnc1-n1ccc(-c2cccc3ccccc23)n1 (centres unmarked) [Example 110, N-[3-Amino-2,3-dioxo-1-(phenylmethyl)propyl]-2-(3-naphthalen-1-yl-1H-pyrazol-1-yl)pyridine-3-carboxamide] | ++ (++ means a Ki(cathepsin S)/Ki(calpain) ratio of ≧100) | ++ (++ means a Ki(cathepsin K)/Ki(calpain) ratio of ≧30) | ++ (++ means a Ki(cathepsin B)/Ki(calpain) ratio of ≧30) | ++ (++ means a Ki(cathepsin L)/Ki(calpain) ratio of ≧50)
7 | COc1ccc2c(c1)-c1nn(-c3ncccc3C(=O)NC(Cc3ccccc3)C(=O)C(N)=O)cc1CO2 (centres unmarked) [Example 183, N-[3-Aamino-2,3-dioxo-1-(phenylmethyl)propyl]-2-[8-(methyloxy)chromeno[4,3-c]pyrazol-2(4H)-yl]pyridine-3-carboxamide] | ++ (++ means a Ki(cathepsin S)/Ki(calpain) ratio of ≧100) | + (+ means 10≦Ki(cathepsin K)/Ki(calpain)<30) | + (+ means 10≦Ki(cathepsin B)/Ki(calpain)<30) | ++ (++ means a Ki(cathepsin L)/Ki(calpain) ratio of ≧50)
8 | NC(=O)C(=O)C(Cc1ccccc1)NC(=O)c1cccnc1-n1ccc(-c2cccc(Cl)c2Cl)n1 (centres unmarked) [Example 115, N-[3-Amino-2,3-dioxo-1-(phenylmethyl)propyl]-2-[3-(2,3-dichlorophenyl)-1H-pyrazol-1-yl]pyridine-3-carboxamide] | ++ (++ means a Ki(cathepsin S)/Ki(calpain) ratio of ≧100) | ++ (++ means a Ki(cathepsin K)/Ki(calpain) ratio of ≧30) | ++ (++ means a Ki(cathepsin B)/Ki(calpain) ratio of ≧30) | ++ (++ means a Ki(cathepsin L)/Ki(calpain) ratio of ≧50)
9 | NC(=O)C(=O)C(Cc1ccccc1)NC(=O)c1cc(Cl)cnc1-n1ccc(-c2ccccc2)n1 (centres unmarked) [Example 27, N-(3-Amino-1-benzyl-2,3-dioxopropyl)-5-chloro-2-(3-phenyl-1H-pyrazol-1-yl)nicotinamide] |  | + (+ means 10≦Ki(cathepsin K)/Ki(calpain)<30) | ++ (++ means a Ki(cathepsin B)/Ki(calpain) ratio of ≧30) | + (+ means 30≦Ki(cathepsin L)/Ki(calpain)<50)
10 | N#Cc1cnc(-n2ccc(-c3ccccc3)n2)c(C(=O)NC(Cc2ccccc2)C(=O)C(N)=O)c1 (centres unmarked) [Example 82, N-(3-Amino-1-benzyl-2,3-dioxopropyl)-5-cyano-2-(3-phenyl-1H-pyrazol-1-yl)nicotinamide] |  | ++ (++ means a Ki(cathepsin K)/Ki(calpain) ratio of ≧30) | ++ (++ means a Ki(cathepsin B)/Ki(calpain) ratio of ≧30) | ++ (++ means a Ki(cathepsin L)/Ki(calpain) ratio of ≧50)
